Measurements reported in patent publication US20240229098A1, “BIOLUMINOGENIC ASSAY FOR DRUG-RESISTANCE BACTERIA DETECTION” (priority 2021, published 2024).
Entries after “also recorded” stand apart in the source; their conditions may differ.

Key:
K. pneumoniae/KPC = assay: RAPID BLI test, clinic isolate spiked into synthetic urine, K. pneumoniae/KPC; conditions: K. pneumoniae/KPC in synthetic urine, D-Bluco 10 μM
Experimental: (§3) The modified rapid BLI protocol is applied. The signal of D-Bluco in PBS was subtracted before plotting. The working concentration of D-Bluco was 10 μM. All the studies were duplicated at room temperature in PBS (pH=7.4). Statistical significance was calculated using the unpaired two-tailed Student's t test (** p<0.0021, *** p<0.0002, **** p<0.0001, for comparison with 10^5 cfu/mL E. coli) (** p<0.0021, **** p<0.0001, ns: not significant). RLU indicates relative light units. Dotted line represents 3SD of the negative control.
(§4) Bacteria was mixed with 0.5% CHAPS lysis buffer for 15 min, and then incubated with D-Bluco at room temperature for another 15 min. The resulted mixture was combined with assay buffer which contains MgCl2, CoA, ATP, and luciferase for immediate bioluminescent reading.
(§5) Clinic isolates representing different classes (class A: Enterobacter cloacae/IMI, E. coli/TEM, K. pneumoniae/KPC; class B: E. coli/NDM, and class C: E. cloacae/AmpC) were spiked into synthetic urine samples.

AmpC = assay: Limit of detection of recombinant β-lactamase by bioluminescence (AmpC); assay type: biochemical; conditions: 2 hours, room temperature; 3 SD of negative control
BlaC = biological target: T1, BlaC (Mycobacterium tuberculosis, UniProt P9WKD3); assay: Limit of detection of recombinant β-lactamase by bioluminescence (BlaC); assay type: biochemical; conditions: 2 hours, room temperature; 3 SD of negative control
T1 construct: made in house

E. coli/TEM lysate = assay: Bioluminescence with bacterial lysate compared to intact bacteria, E. coli/TEM; assay type: cell-based, Escherichia coli; conditions: CHAPS lysis
[1] = system: E. coli expressing OXA-48; assay: Clinical isolate spiked in synthetic urine, filtered and centrifuged, E. coli expressing OXA-48; assay type: cell-based, Escherichia coli; conditions: E. coli expressing OXA-48, 10 μM D-Bluco, an hour at 37° C., PBS pH 7.4
Experimental: FIGS. 11A-11C illustrate detection of clinical isolates spiked in urine with D-Bluco a) Workflow for clinical sample detection b) Bioluminescent response for different concentrations of S. marcescens (SME) or c) E. coli/OXA-48 spiked into synthetic urine samples following the incubation with D-Bluco (10 μM) at 37° C. for an hour. Bioluminescent signal was measured and compared to that of E. coli (10^6 c.f.u/mL).
Urinary tract infection (UTI) is a severe public health problem because of the high recurrence rates and increasing antimicrobial resistance. It is among the major cause of patient morbidity and health care expenditures for both men and women of all age groups, accounting for 1 million cases of nosocomial in USA annually and an estimate cost of 1.6 billion. As a proof-of-concept, we spiked different concentrations of clinic isolates into synthetic urine samples. E. coli expressing OXA-48 and S. marcescens (SME) were chosen as examples. S. marcescens, being an opportunistic pathogen, accounts for an average of 6.5% of all Gram negative infection in intensive Care Units. The spiked urine samples were filtered and centrifuged to collect the bacteria (FIG. 11A). The collected bacteria were then diluted in PBS (pH=7.4) and incubated with 10 μM D-Bluco for an hour at 37° C.

KPC-3 = KPC-3 (Klebsiella pneumoniae, UniProt Q9F663, H272Y); assay: Limit of detection of recombinant β-lactamase by bioluminescence (KPC-3); assay type: biochemical; conditions: 2 hours, room temperature; 3 SD of negative control
TEM-1 [2] = biological target: T2, TEM-1 (Escherichia coli, UniProt P62593); assay type: biochemical; design: made in house; conditions: 10 μM probe
Experimental: RLU indicates relative light units.
(§1) FIGS. 9A and 9B illustrates bioluminescent studies of D-Bluco and O-Bluco treating with various β-lactamases. 10 μM of Bluco, D-Bluco and O-Bluco incubated with 20 nM TEM-1 for 15 min in PBS at r.t. The bioluminescent signals for each compound was evaluated with or without the addition of TEM-1 by a luminator. […] The relative bioluminescent was calculated by removing background signal in PBS.
The bioluminescence emission from the released D-luciferin was measured. […] Also evaluated was whether there was interference between luciferase and β-lactamases in such dual enzyme reaction system.
The signal to background ratio for D-Bluco, O-Bluco, and Bluco was measured following the addition of the firefly luciferase (fLuc).
(§2) The caged luciferin probes were incubated with different concentrations of TEM-1 β-lactamase or IMP-1 carbapenemase (0.001-0.1 fmol) in PBS (pH=7.4) for 2 hr at 25° C. Then a mixture of luciferase (200 nM), ATP (2 mM), and MgCl2 (4 mM) was added, and bioluminescent signals were detected with a SpectraMax microplate reader or a luminator.

[3] = system: clinically bacteria isolates in urine samples; assay: RAPID BLI assay, summary for clinical bacteria isolates in urine samples; assay type: cell-based; conditions: in 30 mins
Excerpt: The source of the bioluminescence background emission in bioluminogenic pro-luciferin probes was investigated. In addition to trace amounts of free D-luciferin in the sample, pro-luciferin probes can be oxidized by luciferases due to the promiscuity of the enzyme […]. […] By combining BRET quenching and chemical caging, an ultrasensitive bioluminescent probe D-Bluco was developed that could detect as low as 10-18 moles of β-lactamase activity.

[4] = system: KPC-3, BlaC, TEM-1, IMP-1, AmpC, OXA-48; assay: Bioluminescence with panel of recombinant β-lactamases of clinical relevance; assay type: biochemical
Experimental: as §1
Having confirmed the quenching ability of dabcyl to lower D-Bluco bioluminescent background emission, the activity of D-Bluco towards a variety of β-lactamases that are of clinical relevance in addition to TEM-1, including KPC-3, BlaC (Class A), AmpC (Class C), and OXA-48 (Class D) was then assessed. These enzymes were recombinantly expressed and purified. The bioluminescent signal was measured with an IVIS optical imaging system after treating D-Bluco with each enzyme for 2 hours at room temperature.
D-Bluco and O-Bluco were evaluated with various β-lactamase that of clinical relevance (FIG. 9B and 9C), including KPC-3, BlaC, TEM-1 (Class A), IMP-1 (Class B), AmpC (Class C), and OXA-48 (Class D). These enzymes were recombinantly expressed, purified as previously described^25. The bioluminescent signal was measured after incubating O-Bluco or D-Bluco with each enzyme at different concentrations for 2 hr at r.t. […] This compares favorably to previously reported fluorescent cephalosporin probe with a 1000-fold sensitivity improvement.^26
as §2

[5] = Stability of probe incubated with E. coli or PBS; conditions: incubated with Escherichia coli or PBS
E. cloacae/AmpC = assay: RAPID BLI test, clinic isolate spiked into synthetic urine, E. cloacae/AmpC; conditions: E. cloacae/AmpC in synthetic urine, D-Bluco 10 μM
Experimental: as §3, §4, §5

TEM-1 [6] = biological target: T2, TEM-1; assay: Limit of detection of recombinant β-lactamase by bioluminescence (TEM-1); assay type: biochemical; design: made in house; conditions: 2 hours, room temperature; 3 SD of negative control
OXA-48 = biological target: T3, OXA-48 (Klebsiella pneumoniae, UniProt Q6XEC0); assay: Limit of detection of recombinant β-lactamase by bioluminescence (OXA-48); assay type: biochemical
T3 construct: made in house
T3 sequence (Q6XEC0 23-265 limits assumed): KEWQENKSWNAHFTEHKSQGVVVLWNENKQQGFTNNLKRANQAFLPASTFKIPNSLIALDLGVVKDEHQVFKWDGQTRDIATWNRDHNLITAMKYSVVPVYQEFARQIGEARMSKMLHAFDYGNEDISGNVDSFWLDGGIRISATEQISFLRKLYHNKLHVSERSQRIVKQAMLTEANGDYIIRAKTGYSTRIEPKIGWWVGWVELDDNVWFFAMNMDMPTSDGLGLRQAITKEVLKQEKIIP

T2 sequence (P62593 24-286 limits assumed): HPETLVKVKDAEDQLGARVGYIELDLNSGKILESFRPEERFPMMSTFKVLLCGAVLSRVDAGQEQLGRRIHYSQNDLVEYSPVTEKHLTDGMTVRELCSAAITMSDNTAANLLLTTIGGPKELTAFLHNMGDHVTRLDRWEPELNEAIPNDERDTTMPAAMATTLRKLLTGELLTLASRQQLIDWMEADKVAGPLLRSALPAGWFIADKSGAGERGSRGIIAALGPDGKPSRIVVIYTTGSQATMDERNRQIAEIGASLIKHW
T1 sequence (P9WKD3 35-307): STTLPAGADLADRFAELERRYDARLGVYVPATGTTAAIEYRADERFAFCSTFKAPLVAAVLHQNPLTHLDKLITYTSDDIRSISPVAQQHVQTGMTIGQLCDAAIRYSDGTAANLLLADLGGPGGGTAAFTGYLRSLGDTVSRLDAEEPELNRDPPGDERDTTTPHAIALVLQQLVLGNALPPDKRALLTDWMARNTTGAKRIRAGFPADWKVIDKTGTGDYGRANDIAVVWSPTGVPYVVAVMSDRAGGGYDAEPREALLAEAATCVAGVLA
KPC-3, sequence (Q9F663 25-293 H272Y): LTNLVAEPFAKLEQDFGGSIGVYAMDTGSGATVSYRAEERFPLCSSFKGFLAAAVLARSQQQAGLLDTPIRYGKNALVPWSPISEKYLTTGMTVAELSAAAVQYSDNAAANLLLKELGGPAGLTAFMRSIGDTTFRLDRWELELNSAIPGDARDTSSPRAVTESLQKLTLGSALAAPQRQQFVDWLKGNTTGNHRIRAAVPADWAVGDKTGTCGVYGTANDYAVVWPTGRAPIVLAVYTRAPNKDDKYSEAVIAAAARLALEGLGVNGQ

SMILES: CN(C)c1ccc(/N=N/c2ccc(C(=O)NCCCCCC(=O)NC3C(=O)N4C(C(=O)O)=C(COc5ccc6nc(C7=N[C@@H](C(=O)O)CS7)sc6c5)C[S+]([O-])C34)cc2)cc1 (stereo partly drawn) [D-Bluco, 3-(((2-((S)-4-carboxy-4,5-dihydrothiazol-2-yl)benzo[d]thiazol-6-yl)oxy)methyl)-7-(6-(4-((E)-(4-(dimethylamino)phenyl)diazenyl)benzamido)hexanamido)-8-oxo-5-thia-1-azabicyclo[4.2.0]oct-2-ene-2-carboxylic acid 5-oxide]
- concentration detected directly without culture (K. pneumoniae/KPC): 10^3 cfu/mL
- limit of detection (LOD) of AmpC (AmpC): 0.1 femtomole
- limit of detection (LOD) of BlaC (all other β-lactamases) (BlaC): 0.001 femtomole
- signal enhancement with lysate compared to intact bacteria (E. coli/TEM lysate): 52 fold
- concentration from which significant bioluminescence enhancement is seen [1]: 10^5 c.f.u/mL
- limit of detection (LOD) of KPC-3 (all other β-lactamases) (KPC-3): 0.001 femtomole
- fold increase in bioluminescence emission upon TEM-1 treatment (turn-on ratio, signal with TEM-1 over signal without TEM-1) (TEM-1 [2]; TEM-1 20 nM, 15 min, PBS pH 7.4, r.t.): 1420 fold
- initial bioluminescent background signal without TEM-1 (TEM-1 [2]; without TEM-1): significantly lower than that of Bluco; also recorded: lowest background signal
- sensitivity of RAPID BLI assay for clinical isolates in urine samples [3]: 10^2-10^3 cfu/mL
- lowest detectable β-lactamase activity [4]: 10-18 moles
- detection limits for the panel of enzymes ([4]; KPC-3, BlaC, TEM-1, IMP-1, AmpC, OXA-48, 2 hr at r.t.): within the femtomole range
- bioluminescence triggered by β-lactamases TEM-1, KPC-3, BlaC, AmpC, OXA-48 ([4]; each enzyme 2 hours at room temperature, IVIS imaging): significant bioluminescence
- stability when incubated with E. coli or PBS [5]: highly stable
- concentration detected directly without culture (E. cloacae/AmpC): 10^2 cfu/mL
- limit of detection (LOD) of TEM-1 (all other β-lactamases) (TEM-1 [6]): 0.001 femtomole
- efficiency of OXA-48 in hydrolyzing the probe (OXA-48): low efficiency
- limit of detection (LOD) of OXA-48 (OXA-48; 2 hours, room temperature, 3 SD of negative control (D-Bluco in PBS)): 0.1 femtomole
